Measured values: patent US6175001A, “Functionalized pyrimidine nucleosides and nucleotides and DNA's incorporating same” (The Scripps Research Institute, priority 1998, dated 2001)

How the values were obtained:
[1] = test system: thermostable DNA polymerase; settings: Latham et al., Nucleic Acids Res. 1994; cited from earlier work
[2] = test system: thermostable DNA polymerases (Taq, Vent, Pfu, rTh); test: PCR assays with modified dUTP in place of dTTP, panel of thermostable DNA polymerases; type: biochemical; settings: for substrate for thermostable DNA polymerases in PCR: typical PCR conditions, analog in place of dTTP, all polymerases tested (Taq, Vent, Pfu, rTh), 519 base pair product; for incorporation of modified base in PCR under varied conditions: variation of Mg+2 (15 to 30 mM) and analog concentrations
Excerpt: (§1) Commercially available thermostable DNA polymerases from […] organisms were studied; Taq from Thermus aquaticus, Vent from Thermococcus litoralis, Pfu from Pyrococcus furiosus, and rTh from Thermus thermophilus. […] Homogeneous incorporation of these derivatives in PCR is not possible due to chain termination, see 11c for discussion of derivatives in PCR: a) M. Shimkus, J. Levy, T. Herman, Proc. Natl. Acad. Sci. U.S.A. 1985, 82, 2593-7; b) B. L. Iverson, P. B. Dervan, J Am. Chem. Soc. 1987, 109, 1241-3. and ref. 10; c) H. Yu, J. Chao, D. Patek, R. Mujumdar, A. S. Waggoner, Nucleic Acids Res. 1994, 22, 3226-32. Successful PCR with this template requires incorporation of 246 modified bases including a single stretch of 8 contiguous thymidines.
(§2) Compound 3 was derivatized with three different N-hydroxysuccinimide esters to prepare Compounds 4a-c (Scheme 2 FIG. 3). […] To test this structure-activity relationship, 4e-4g maintaining the a,b-unsaturated linker arm common to 4a, were also prepared (Scheme 2, FIG. 3). […] Compound 4g, with a free amino group, was used as a template for the synthesis of Compounds 4h and 4i.

rTh polymerase = target: T1, rTh polymerase (Thermus thermophilus, UniProt P52028); test: PCR assay with modified dUTP in place of dTTP, rTh polymerase; type: biochemical; settings: analog in place of dTTP, 519 base pair product
T1 construct: purchased
Excerpt: as §1, §2

[3] = target: T2, Superscript II reverse transcriptase (Moloney murine leukemia virus, UniProt P03355, D1183G/D1242N/E1221Q); test: Reverse transcriptase template-directed extension assay; type: biochemical; settings: 0.4 mM analog; 0.2 mM dATP, dCTP, dGTP; 37 C
T2 construct: Superscript II reverse transcriptase; purchased Gibco/BRL
Procedure: Reverse transcriptases may also be utilized in conjunction with PCR in in vitro selection schemes of DNA enzymes. […] The specificity of this reverse transcriptase is broader and not predictive of the structural requirements of the thermostable polymerases.
Reverse transcriptase assays: Template-directed extension was performed by addition of 10 pmol template DNA 5'-GCTAAAAAAGCTGCTAAAAAGCTGCTAAAAGCTGCTAAAGCTAAGCTAGCTCCCTTTAGTGAGGGTTAATTGC-3' (SEQ ID NO. 1) to 10 pmol primer DNA 5'-GCAATTAACCCTCACTAAAGGG-3' (SEQ ID NO 2) followed by Superscript II reverse transcriptase (Gibco, 200 units.(1^-1). The reaction (25 (I) contained 0.2 mM of dATP, dCTP, dGTP and 0.4 mM analog. Trace quantities of ((-^32 P(-dATP was included to allow the extension efficiency to be monitored. All components except reverse transcriptase were combined, incubated at 90° C. and cooled to 37° C. to anneal the primer. The enzyme (600 units) was added and the reaction mixture was incubated at 37 (C. The DNA was precipitated in ethanol and then dissolved in gel-loading buffer containing urea and heated for 3 min at 90° C. After separation on a 10% denaturing acrylarnide gel, the samples were further analyzed with a Phosphorimager.

T1 sequence (P52028 whole entry): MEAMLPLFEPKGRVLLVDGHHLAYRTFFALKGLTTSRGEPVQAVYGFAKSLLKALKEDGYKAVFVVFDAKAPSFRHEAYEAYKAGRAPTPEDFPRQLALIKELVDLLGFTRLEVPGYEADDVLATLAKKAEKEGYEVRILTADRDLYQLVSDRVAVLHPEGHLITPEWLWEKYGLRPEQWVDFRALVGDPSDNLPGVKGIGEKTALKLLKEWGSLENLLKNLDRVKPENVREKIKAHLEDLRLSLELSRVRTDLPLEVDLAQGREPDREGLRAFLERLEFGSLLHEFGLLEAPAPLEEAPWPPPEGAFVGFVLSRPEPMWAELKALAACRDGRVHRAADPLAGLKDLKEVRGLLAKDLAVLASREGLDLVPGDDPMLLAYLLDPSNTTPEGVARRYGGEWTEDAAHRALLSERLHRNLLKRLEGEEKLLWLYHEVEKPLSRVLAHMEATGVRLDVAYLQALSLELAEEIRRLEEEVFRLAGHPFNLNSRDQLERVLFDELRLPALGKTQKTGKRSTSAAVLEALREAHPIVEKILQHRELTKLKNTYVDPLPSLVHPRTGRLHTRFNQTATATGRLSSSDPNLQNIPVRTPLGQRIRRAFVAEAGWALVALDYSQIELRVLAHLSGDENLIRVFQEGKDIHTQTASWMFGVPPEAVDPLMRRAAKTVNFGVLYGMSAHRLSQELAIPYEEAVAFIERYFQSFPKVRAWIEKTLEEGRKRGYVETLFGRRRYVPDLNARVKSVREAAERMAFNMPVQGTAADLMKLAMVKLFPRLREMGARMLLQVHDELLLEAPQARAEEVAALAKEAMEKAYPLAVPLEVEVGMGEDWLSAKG

Question: Which “substrate for a thermostable DNA polymerase” value [1] does the source give for CCCC#Cc1cn([C@H]2C[C@H](O)[C@@H](COP(=O)(O)OP(=O)(O)OP(=O)(O)O)O2)c(=O)[nH]c1=O [5-(1-pentynyl)-2' deoxyuridine triphosphate] here?
Answer: good substrate

Question: Which “criteria for in vitro selection: substrate for thermostable polymerases and product serves as template for multiple cycles of PCR amplification” value [2] does the source give for NCC=Cc1cn([C@H]2C[C@H](O)[C@@H](COP(=O)(O)OP(=O)(O)OP(=O)(O)O)O2)c(=O)[nH]c1=O [Compound 3, C-5(3-aminopropenyl)-2'-deoxvuridinetriphosphate] here?
Answer: criteria were met

Question: What about the “substrate for thermostable DNA polymerases in PCR” value [2] of the same compound?
Answer: acted as a substrate

Question: What about the “incorporation / substrate in PCR with rTh polymerase (only polymerase of the panel that accepts it)” value (rTh polymerase) of the same compound?
Answer: incorporation into the 519 base pair product only with rTh polymerase

Question: Which “criteria for in vitro selection: substrate for thermostable polymerases and product serves as template for multiple cycles of PCR amplification” value [2] does the source give for O=C(/C=C/c1c[nH]cn1)NCC=Cc1cn([C@H]2C[C@H](O)[C@@H](COP(=O)(O)OP(=O)(O)OP(=O)(O)O)O2)c(=O)[nH]c1=O [Compound 4a] here?
Answer: criteria were met

Question: What about the “substrate for thermostable DNA polymerases in PCR” value [2] of the same compound?
Answer: excellent substrate for all the polymerases tested

Question: With O=C(O)c1ccc(C(=O)NC/C=C/c2cn([C@H]3C[C@H](O)[C@@H](COP(=O)(O)OP(=O)(O)OP(=O)(O)O)O3)c(=O)[nH]c2=O)cc1 [Compound 4b] as the compound, how does the “incorporation of modified base in PCR under varied conditions” value [2] read?
Answer: failed to define conditions that allowed for incorporation

Question: Which “substrate of Superscript II reverse transcriptase in template directed synthesis” value [3] does the source give for O=C(O)c1ccccc1-c1ccccc1C(=O)NCC=Cc1cn([C@H]2C[C@H](O)[C@@H](COP(=O)(O)OP(=O)(O)OP(=O)(O)O)O2)c(=O)[nH]c1=O [Compound 4c] here?
Answer: all but 4c and 4h were substrates

Question: What about the “incorporation of modified base in PCR under varied conditions” value [2] of the same compound?
Answer: failed to define conditions that allowed for incorporation

Question: With O=C(CCc1c[nH]cn1)NC/C=C/c1cn([C@H]2C[C@H](O)[C@@H](COP(=O)(O)OP(=O)(O)OP(=O)(O)O)O2)c(=O)[nH]c1=O [Compound 4d] as the compound, how does the “substrate for thermostable DNA polymerases in PCR” value [2] read?
Answer: No conditions could be defined with any of the polymerases that allowed for PCR

Question: For NCc1cccc(/C=C/C(=O)NC/C=C/c2cn([C@H]3C[C@H](O)[C@@H](COP(=O)(O)OP(=O)(O)OP(=O)(O)O)O3)c(=O)[nH]c2=O)c1 [Compound 4g], which “substrate for thermostable DNA polymerases in PCR” value [2] is on record?
Answer: robust substrate for PCR as compared to 3

Question: For O=C(O)CCCC(=O)NCc1cccc(/C=C/C(=O)NC/C=C/c2cn([C@H]3C[C@H](O)[C@@H](COP(=O)(O)OP(=O)(O)OP(=O)(O)O)O3)c(=O)[nH]c2=O)c1 [Compound 4h], which “substrate of Superscript II reverse transcriptase in template directed synthesis” value [3] is on record?
Answer: all but 4c and 4h were substrates

Question: What about the “substrate for thermostable DNA polymerases in PCR” value [2] of the same compound?
Answer: good substrate for all thermostable polymerases tested

Question: For CC(=O)N[C@@H](Cc1c[nH]cn1)C(=O)NCc1cccc(/C=C/C(=O)NC/C=C/c2cn([C@H]3C[C@H](O)[C@@H](COP(=O)(O)OP(=O)(O)OP(=O)(O)O)O3)c(=O)[nH]c2=O)c1 [Compound 4i], which “incorporation / substrate in PCR with rTh polymerase (only polymerase of the panel that accepts it)” value (rTh polymerase) is on record?
Answer: substrate only for rTh polymerase
